ChEMBL document CHEMBL1132784, “Dibasic inhibitors of human mast cell tryptase. Part 2: structure-activity relationships and requirements for potent activity” (Bioorg Med Chem Lett, 2000)

Columns and labels:
Plasminogen = Plasminogen (Homo sapiens, UniProt P00747); assay: Compound was evaluated for its inhibitory potency against plasmin
Serine protease 1 = Serine protease 1 (Homo sapiens, UniProt P07477); assay: Compound was evaluated for its inhibitory potency against trypsin
Tryptase = Tryptase (Homo sapiens, UniProt Q9BZJ3+Q15661+Q9NRR2); assay: Evaluated for its inhibitory potency against tryptase; type: protein assay
Prothrombin = Prothrombin (Homo sapiens, UniProt P00734); assay: Compound was evaluated for its inhibitory potency against thrombin

Serine protease 1, sequence (P07477 whole entry): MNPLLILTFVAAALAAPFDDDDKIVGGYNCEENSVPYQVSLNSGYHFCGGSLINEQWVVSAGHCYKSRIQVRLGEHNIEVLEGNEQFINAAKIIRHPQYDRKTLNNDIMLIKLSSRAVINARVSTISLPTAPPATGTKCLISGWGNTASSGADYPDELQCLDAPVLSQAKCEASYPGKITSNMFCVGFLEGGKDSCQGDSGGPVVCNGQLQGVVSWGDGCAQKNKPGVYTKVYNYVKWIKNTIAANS
Plasminogen, sequence (P00747 97-580 limits assumed): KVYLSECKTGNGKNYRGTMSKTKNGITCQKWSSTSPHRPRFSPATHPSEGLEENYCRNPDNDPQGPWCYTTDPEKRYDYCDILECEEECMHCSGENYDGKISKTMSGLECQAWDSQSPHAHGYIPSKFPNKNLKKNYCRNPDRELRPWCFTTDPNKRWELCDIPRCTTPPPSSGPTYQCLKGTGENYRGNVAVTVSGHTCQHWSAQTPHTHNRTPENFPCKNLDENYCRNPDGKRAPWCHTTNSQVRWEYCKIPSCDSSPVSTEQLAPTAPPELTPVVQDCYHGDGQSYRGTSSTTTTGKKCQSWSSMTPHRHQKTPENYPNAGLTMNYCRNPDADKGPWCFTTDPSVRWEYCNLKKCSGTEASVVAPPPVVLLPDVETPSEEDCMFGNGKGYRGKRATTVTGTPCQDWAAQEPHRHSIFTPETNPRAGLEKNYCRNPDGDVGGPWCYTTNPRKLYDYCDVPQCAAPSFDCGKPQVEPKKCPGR
Plasminogen, sequence (P00747 581-810 limits assumed): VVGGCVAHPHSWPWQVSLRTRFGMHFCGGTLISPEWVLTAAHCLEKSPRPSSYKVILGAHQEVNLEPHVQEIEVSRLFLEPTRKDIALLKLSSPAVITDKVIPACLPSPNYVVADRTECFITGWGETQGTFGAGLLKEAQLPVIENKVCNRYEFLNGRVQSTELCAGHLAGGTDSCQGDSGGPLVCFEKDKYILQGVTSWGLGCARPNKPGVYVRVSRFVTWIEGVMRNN

SMILES	Ki (Plasminogen) [mM]	Ki (Serine protease 1) [µM]	Ki (Tryptase) [µM]	Ki (Prothrombin) [mM]
NCCCCCCNC(=O)N1CCN(C(=O)O[C@H]2CCC[C@@H](OC(=O)N3CCN(C(=O)NCCCCCCN)CC3)CCC2)CC1	> 1	> 1000	1	> 1
N=C(N)Nc1ccc(CNC(=O)N2CCN(C(=O)OCc3ccc(COC(=O)N4CCN(C(=O)NCc5ccc(NC(=N)N)cc5)CC4)cc3)CC2)cc1	> 1	17	0.0004	> 1
N=C(N)Nc1ccc(CNC(=O)N2CCN(C(=O)CCCCCCCCC(=O)N3CCN(C(=O)NCc4ccc(NC(=N)N)cc4)CC3)CC2)cc1	> 1	20	0.0007	> 1
NCCc1ccc(CCNC(=O)N2CCN(C(=O)O[C@H]3CCC[C@@H](OC(=O)N4CCN(C(=O)NCCc5ccc(CCN)cc5)CC4)CCC3)CC2)cc1	0.57	> 1000	1	> 1
N=C(N)Nc1ccc(CNC(=O)N2CCN(C(=O)CCCCCCC(=O)N3CCN(C(=O)NCc4ccc(NC(=N)N)cc4)CC3)CC2)cc1	> 1	34	0.0001	> 1
N=C(N)Nc1ccc(CNC(=O)N2CCN(C(=O)O[C@H]3CCC[C@@H](OC(=O)N4CCN(C(=O)CCCn5ccnc5)CC4)CCC3)CC2)cc1	> 1	158	> 1000	> 1
N=C(N)Nc1ccc(CNC(=O)N2CCN(C(=O)O[C@H]3CCC[C@@H](OC(=O)N4CCN(C(=O)CCCC5CCNCC5)CC4)CCC3)CC2)cc1	> 1	262	0.004	> 1

The next lines start with the values.

Ki (Plasminogen) [mM]	Ki (Serine protease 1) [µM]	Ki (Tryptase) [µM]	Ki (Prothrombin) [mM]	SMILES
> 1	445	0.005	0.13	N=C(N)N1CCC(CC(=O)N2CCN(C(=O)O[C@H]3CCC[C@@H](OC(=O)N4CCN(C(=O)CC5CCN(C(=N)N)CC5)CC4)CCC3)CC2)CC1
0.576	17	0.01	0.363	N=C(N)Nc1ccc(CNC(=O)N2CCN(C(=O)OCC34CC5CC(C3)CC(COC(=O)N3CCN(C(=O)NCc6ccc(NC(=N)N)cc6)CC3)(C5)C4)CC2)cc1
> 1	> 1000	0.1	> 1	O=C(CCCC1CCNCC1)N1CCN(C(=O)O[C@H]2CCC[C@@H](OC(=O)N3CCN(C(=O)CCCC4CCNCC4)CC3)CCC2)CC1
0.06	66	0.44	0.036	N=C(N)c1ccc(CCNC(=O)N2CCN(C(=O)O[C@H]3CCC[C@@H](OC(=O)N4CCN(C(=O)NCCc5ccc(C(=N)N)cc5)CC4)CCC3)CC2)cc1
> 1	131	0.9	> 1	N=C(N)Nc1ccc(CNC(=O)N2CCN(C(=O)O[C@H]3CCC[C@@H](OC(=O)N4CCN(C(=O)NCCc5ccncc5)CC4)CCC3)CC2)cc1
> 1	95	0.3	> 1	NCC12CCC(CNC(=O)N3CCN(C(=O)O[C@H]4CCC[C@@H](OC(=O)N5CCN(C(=O)NCC67CCC(CN)(CC6)CC7)CC5)CCC4)CC3)(CC1)CC2
> 1	> 1000	46	> 1	O=C(CCCCCn1ccnc1)N1CCN(C(=O)O[C@H]2CCC[C@@H](OC(=O)N3CCN(C(=O)CCCCCn4ccnc4)CC3)CCC2)CC1
> 1	129	0.0005	> 1	N=C(N)Nc1ccc(CNC(=O)N2CCN(C(=O)O[C@H]3CCC[C@@H](OC(=O)N4CCN(C(=O)NCCCCCN)CC4)CCC3)CC2)cc1
> 1	> 1000	255	> 1	CC(=N)N1CCC(CCNC(=O)N2CCN(C(=O)O[C@H]3CCC[C@@H](OC(=O)N4CCN(C(=O)NCCC5CCN(C(C)=N)CC5)CC4)CCC3)CC2)CC1
